Assay results published in patent US11510852B2 (THE ROYAL INSTITUTION FOR THE ADVANCEMENT OF …, priority 2019, dated 2022).

What was measured:
[1] = UV visible spectroscopy of supernatant after addition of composite resin powder; type: binding; settings: 306 nm methyl salicylate, 272 nm thymol
Description: (§1) To analyze how the different tested molecules (methyl salicylate, thymol and spearmint oil) interact with composite and the tooth structure UV Visible spectroscopy was used. Dilute solutions of the three tested molecules were prepared. […] The resulting solutions were analyzed in triplicates using UV visible spectrophotometer (Evolution 200 series, Thermo Scientific, Madison, USA) and the resulting absorbance peaks were plotted as control (FIG. 1). After this, equal weights of composite resin and hydroxy-apatite powders were added to equal volumes of the diluted solutions of the three tested molecules.
(§2) The characterization of the interaction between the staining components and both composite resin and the tooth structure was performed using UV visible spectroscopy which was chosen to characterize indirectly the insoluble powder; a method that is largely used in pharmaceutical industry. In this method, different weights of insoluble polymer are added to a known concentration of a solute with a clear fingerprint in UV-vis spectrum. After each addition, the filtered solutions are then analyzed using UV-vis spectrophotometer and the resultant effect on the UV spectrum is compared to the baseline readings.

[2] = UV visible spectroscopy of supernatant after addition of hydroxy-apatite powder; type: binding; settings: 306 nm MeSa, 272 nm thymol
Description: as §1, §2

| Structure (SMILES) | decrease of main absorbance peak ([1]; 0.3 g composite resin) [%] | decrease of main absorbance peak ([1]; 0.5 g composite resin) [%] | decrease of main absorbance peak ([1]; 0.8 g composite resin) [%] | change of main absorbance peak ([2]; 0.3 g hydroxy-apatite) [%] | change of main absorbance peak ([2]; 0.5 g hydroxy-apatite) [%] | change of main absorbance peak ([2]; 0.8 g hydroxy-apatite) [%] |
| --- | --- | --- | --- | --- | --- | --- |
| COC(=O)c1ccccc1O [methyl salicylate] | 37±3.9 | 38±25 | 85±12 | 13±22 | 11±14 | 1.1±15 |
| Cc1ccc(C(C)C)c(O)c1 [thymol] | 47±17 | 55±1.2 | 66±2.9 | 14±3.3 | 10±9.2 | 7±1.6 |
